± gives the expanded uncertainty stated by the source.
What was measured:
[1] = excess molar enthalpy (molar enthalpy of mixing); xn = mol fraction of the nth substance listed; settings: 298.15 K, 101.3 kPa, Liquid, Calvet calorimetry
[2] = Liquid; for mass density: 303.15 K, 101.33 kPa, Pycnometric method; for Normal boiling temperature: Ebulliometric method (Recirculating still)

ClC(Cl)C(Cl)Cl [1,1,2,2-tetrachloroethane] + C[S+](C)[O-]
[1]
Settings	excess molar enthalpy [kJ/mol]
x1 = 0.0378	-0.295 ± 0.0065
x1 = 0.0688	-0.624 ± 0.013
x1 = 0.1005	-0.957 ± 0.021
x1 = 0.1295	-1.29 ± 0.028
x1 = 0.1325	-1.29 ± 0.028
x1 = 0.1565	-1.56 ± 0.033
x1 = 0.1793	-1.77 ± 0.038
x1 = 0.2167	-2.07 ± 0.044
x1 = 0.2914	-2.73 ± 0.058
x1 = 0.3555	-3.24 ± 0.069
x1 = 0.4111	-3.51 ± 0.075
x1 = 0.4577	-3.53 ± 0.075
x1 = 0.4979	-3.51 ± 0.075
x1 = 0.5577	-3.42 ± 0.073
x1 = 0.6277	-3.16 ± 0.067
x1 = 0.6654	-2.98 ± 0.063
x1 = 0.7123	-2.78 ± 0.059
x1 = 0.7577	-2.55 ± 0.054
x1 = 0.8121	-2.15 ± 0.046
x1 = 0.8537	-1.82 ± 0.039
x1 = 0.9099	-1.05 ± 0.023

ClCCCl [1,2-dichloroethane] + C[S+](C)[O-]
[1]
Settings	excess molar enthalpy [kJ/mol]
x1 = 0.0732	-0.0591 ± 0.0016
x1 = 0.1296	-0.0918 ± 0.0023
x1 = 0.1713	-0.107 ± 0.0026
x1 = 0.2259	-0.126 ± 0.003
x1 = 0.2783	-0.151 ± 0.0035
x1 = 0.3275	-0.192 ± 0.0044
x1 = 0.3609	-0.229 ± 0.0051
x1 = 0.4054	-0.298 ± 0.0066
x1 = 0.4636	-0.376 ± 0.0082
x1 = 0.5266	-0.462 ± 0.01
x1 = 0.6133	-0.578 ± 0.013
x1 = 0.6613	-0.599 ± 0.013
x1 = 0.7158	-0.547 ± 0.012
x1 = 0.7593	-0.531 ± 0.011
x1 = 0.8032	-0.445 ± 0.0097
x1 = 0.861	-0.283 ± 0.0063
x1 = 0.9269	-0.119 ± 0.0028

CC(Cl)(Cl)Cl [1,1,1-trichloroethane] + C[S+](C)[O-]
[1]
Settings	excess molar enthalpy [kJ/mol]
x1 = 0.0243	-0.0425 ± 0.0013
x1 = 0.0579	-0.0961 ± 0.0024
x1 = 0.109	-0.176 ± 0.004
x1 = 0.1532	-0.235 ± 0.0053
x1 = 0.1973	-0.284 ± 0.0063
x1 = 0.244	-0.333 ± 0.0073
x1 = 0.2857	-0.364 ± 0.008
x1 = 0.3462	-0.39 ± 0.0085
x1 = 0.4106	-0.412 ± 0.009
x1 = 0.4797	-0.413 ± 0.009
x1 = 0.5571	-0.396 ± 0.0087
x1 = 0.6064	-0.363 ± 0.008
x1 = 0.6632	-0.324 ± 0.0071
x1 = 0.7189	-0.279 ± 0.0062
x1 = 0.7771	-0.22 ± 0.005
x1 = 0.8537	-0.135 ± 0.0032
x1 = 0.9297	-0.0428 ± 0.0013

ClC(Cl)C(Cl)Cl [1,1,2,2-tetrachloroethane]
[2]
Settings	Normal boiling temperature [°C]	mass density [kg/m3]
–	145.20 ± 0.2	1578.59 ± 1.5

ClC=C(Cl)Cl [trichloroethene] + C[S+](C)[O-]
[1]
Settings	excess molar enthalpy [kJ/mol]
x1 = 0.0673	-0.0958 ± 0.0024
x1 = 0.1345	-0.242 ± 0.0054
x1 = 0.2079	-0.443 ± 0.0097
x1 = 0.3016	-0.637 ± 0.014
x1 = 0.3784	-0.641 ± 0.014
x1 = 0.4461	-0.614 ± 0.013
x1 = 0.4987	-0.585 ± 0.013
x1 = 0.6022	-0.461 ± 0.01
x1 = 0.6641	-0.427 ± 0.0093
x1 = 0.7014	-0.41 ± 0.009
x1 = 0.737	-0.408 ± 0.0089
x1 = 0.8114	-0.357 ± 0.0078
x1 = 0.8611	-0.295 ± 0.0065
x1 = 0.9151	-0.201 ± 0.0046

ClC(Cl)=C(Cl)Cl [tetrachloroethene]
[2]
Settings	Normal boiling temperature [°C]	mass density [kg/m3]
–	121.00 ± 0.2	1606.39 ± 1.6

ClC(Cl)=C(Cl)Cl [tetrachloroethene] + C[S+](C)[O-]
[1]
Settings	excess molar enthalpy [kJ/mol]
x1 = 0.0544	0.119 ± 0.0028
x1 = 0.1116	0.244 ± 0.0055
x1 = 0.171	0.382 ± 0.0084
x1 = 0.2237	0.489 ± 0.011
x1 = 0.2735	0.592 ± 0.013
x1 = 0.3306	0.65 ± 0.014
x1 = 0.385	0.655 ± 0.014
x1 = 0.477	0.582 ± 0.013
x1 = 0.5162	0.513 ± 0.011
x1 = 0.5695	0.438 ± 0.0095
x1 = 0.6333	0.362 ± 0.0079
x1 = 0.701	0.27 ± 0.006
x1 = 0.7632	0.219 ± 0.0049
x1 = 0.8252	0.204 ± 0.0046
x1 = 0.8872	0.191 ± 0.0043
x1 = 0.9519	0.131 ± 0.0031

ClCCCl [1,2-dichloroethane]
[2]
Settings	Normal boiling temperature [°C]	mass density [kg/m3]
–	83.80 ± 0.2	1238.41 ± 1.2

CC(Cl)(Cl)Cl [1,1,1-trichloroethane]
[2]
Settings	Normal boiling temperature [°C]	mass density [kg/m3]
–	74.20 ± 0.2	1320.97 ± 1.3

C[S+](C)[O-] [dimethyl sulfoxide]
[2]
Settings	Normal boiling temperature [°C]	mass density [kg/m3]
–	189.04 ± 0.2	1092.4 ± 1

ClC=C(Cl)Cl [trichloroethene]
[2]
Settings	Normal boiling temperature [°C]	mass density [kg/m3]
–	87.10 ± 0.2	1451.42 ± 1.4

From the NIST ThermoML archive (doi:10.1016/j.tca.2007.08.008)
